This note sets out measurements from the supplement of paper PMC11061612.

Test in all cases: Bliss excess, mean over the matrix (fraction); higher = more synergy
Assay [1] deals with NCI-H1792 (Lung Adenocarcinoma). The essentials: (§1)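 Cell lines in DMEM/F12 or RPMI with 10% FBS were plated in 1536-well plates, held 24 hours at 37°C, 5% CO2, then given two-drug dose matrices for 72 hours (DMSO typically 0.2%). Viability was read by CellTiter-Glo 2.0 luminescence and scaled as inhibition from 0 (vehicle wells) to 1 (blank wells). Combination Emax is the second-highest inhibition in the matrix; Bliss excess is observed combination effect minus expected EA + EB − EA·EB, EA and EB being single-agent effects.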

The test system of another assay is TC-71 (Ewing's Sarcoma). The procedure, abridged:
as §1

A further assay concerns CHP-212 (Neuroblastoma). The essentials: as §1
Assay [2] concerns DiFi (Colorectal Carcinoma). The essentials: as §1
Assay [3] concerns DND-41 (T-Lymphoblastic Leukemia). The essentials:
as §1

The subject of assay [4] is MFM-223 (Breast Carcinoma). The essentials: as §1
For assay [5], the system named is MKN28 (Gastric Carcinoma). The procedure, abridged: as §1
Assay [6] relates to PANC-08-13 (Pancreatic Carcinoma). The essentials: as §1
Assay [7] relates to BL-41 (Burkitt's Lymphoma). The procedure, abridged: as §1
The next assay deals with MEL-JUSO (Melanoma). The procedure, abridged:
as §1

Assay [8] relates to KYSE-180 (Esophageal Squamous Cell Carcinoma). The essentials:
as §1

In assay [9] the test system is COLO-678 (Colorectal Carcinoma). The essentials: as §1
In another assay the test system is LN-18 (Glioblastoma). The essentials:
as §1

Another assay deals with WIL2-NS (Non-Cancerous). The essentials: as §1
For assay [10], the system named is TOV-112D (Ovarian Carcinoma). The procedure, abridged: as §1
Assay [11] relates to CAMA-1 (Breast Carcinoma). The essentials:
as §1

For assay [12], the system named is SW1417 (Colorectal Carcinoma). The essentials:
as §1

Assay [13] has as its system TE-6 (Esophageal Squamous Cell Carcinoma). The procedure, abridged:
as §1

Assay [14] relates to KM12 (Colorectal Carcinoma). The procedure, abridged:
as §1

For `NC1(C(=O)N[C@@H](CCO)c2ccc(Cl)cc2)CCN(c2ncnc3[nH]ccc23)CC1` [Capivasertib] + CCN(CCO)CCCOc1ccc2c(Nc3cc(CC(=O)Nc4cccc(F)c4)[nH]n3)ncnc2c1 [AZD2811] (first compound max 10 µM, 7x7, partner max 1 µM), the Bliss excess in [1] was -0.0079; in the assay on TC-71 (Ewing's Sarcoma) it was -0.0573; with CHP-212 (Neuroblastoma), -0.008; in assay [2], -0.0475; in assay [3], 0.0071; in [4], -0.0072. The Bliss excess in [5] was 0.0119; in assay [6], -0.0015; in [7] it was -0.123; in the assay with MEL-JUSO (Melanoma), -0.0083; in assay [8], -0.0303; in [9], -0.0218. Further, the Bliss excess was -0.022 in the assay with LN-18 (Glioblastoma); -0.0431 in the assay on WIL2-NS (Non-Cancerous); 0.0175 in assay [10]; 0.0051 in assay [11]; -0.0478 in assay [12]; -0.0003 in assay [13]. Also, in assay [14], the Bliss excess was -0.0303.
For the compound `COc1nnc2ccc(N3CCC(c4ccc(OCCN5CCN(C)C(=O)[C@H]5C)cc4)CC3)nn12` [AZD5153] + CC1(C)CCC(CN2CCN(c3ccc(C(=O)NS(=O)(=O)c4ccc(NCC5CCOCC5)c([N+](=O)[O-])c4)c(Oc4cnc5[nH]ccc5c4)c3)CC2)=C(c2ccc(Cl)cc2)C1 [Venetoclax] (first compound max 1 µM, 7x7, partner max 1 µM), the Bliss excess in assay [1] is -0.0215; with TC-71 (Ewing's Sarcoma) it was -0.0443; in the assay on CHP-212 (Neuroblastoma), -0.085; in [2] it was 0.0054; in assay [3] it was 0.0352; in assay [4], -0.0295. The Bliss excess in assay [5] was -0.0251; in [6], 0.0065; in [7], -0.0551; in the assay on MEL-JUSO (Melanoma) it was -0.0547; in [8], -0.0193; in [9], -0.121. Also, the Bliss excess in the assay with LN-18 (Glioblastoma) was 0.0348; in the assay on WIL2-NS (Non-Cancerous), -0.0495; in assay [10] it was -0.0474; in assay [11] it was -0.0564; in assay [12], -0.0485; in assay [13], -0.103. Besides, the Bliss excess in [14] is -0.0571.
In the case of `CC(=O)c1c(C)c2cnc(Nc3ccc(N4CCNCC4)cn3)nc2n(C2CCCC2)c1=O` [Palbociclib] + CC1(C)CCC(CN2CCN(c3ccc(C(=O)NS(=O)(=O)c4ccc(NCC5CCOCC5)c([N+](=O)[O-])c4)c(Oc4cnc5[nH]ccc5c4)c3)CC2)=C(c2ccc(Cl)cc2)C1 [Venetoclax] (first compound max 10 µM, 7x7, partner max 1 µM), the Bliss excess in assay [1] was -0.0103; in the assay with TC-71 (Ewing's Sarcoma), -0.0129; in the assay with CHP-212 (Neuroblastoma), 0.023; in [2], 0.0239; in assay [3], -0.0292; in assay [4], 0.0031. Moreover, the Bliss excess in [5] is -0.0461; in [6] it was -0.0361; in assay [7], -0.0842; with MEL-JUSO (Melanoma), -0.0309; in assay [8], -0.012; in assay [9], 0.0158. The Bliss excess with LN-18 (Glioblastoma) is 0.0187; with WIL2-NS (Non-Cancerous), 0.0278; in assay [10], 0.0283; in [11], -0.0381; in assay [12], -0.0267; in [13] it was -0.0255. For the same compound, in assay [14], the Bliss excess was -0.0041.
With `COc1nnc2ccc(N3CCC(c4ccc(OCCN5CCN(C)C(=O)[C@H]5C)cc4)CC3)nn12` [AZD5153] + Cn1cnc2c(F)c(Nc3ccc(Br)cc3Cl)c(C(=O)NOCCO)cc21 [Selumetinib] (first compound max 1 µM, 7x7, partner max 10 µM), the Bliss excess in assay [1] is 0.0577; with TC-71 (Ewing's Sarcoma) it was 0.0049; with CHP-212 (Neuroblastoma) it was -0.0285; in assay [2] it was -0.0011; in assay [3] it was 0.0425; in assay [4] it was -0.0299. For the same compound, the Bliss excess was -0.0169 in assay [5]; 0.0924 in [6]; -0.0526 in assay [7]; 0.0889 in the assay with MEL-JUSO (Melanoma); 0.046 in assay [8]; -0.0382 in assay [9]. The Bliss excess is 0.0152 in the assay with LN-18 (Glioblastoma); 0.0265 with WIL2-NS (Non-Cancerous); 0.0303 in assay [10]; 0.0022 in [11]; 0.0496 in assay [12]; -0.0216 in [13]. For the same compound, in assay [14], the Bliss excess is -0.0166.
Take `COc1nnc2ccc(N3CCC(c4ccc(OCCN5CCN(C)C(=O)[C@H]5C)cc4)CC3)nn12` [AZD5153] + CN(CC[C@H](CSC1=CC=CC=C1)NC2=C(C=C(C=C2)S(=O)(=O)NC(=O)C3=CC=C(C=C3)N4CCC(CC4)[C@H](C5=CC=CC=C5C6=CC=C(C=C6)Cl)O)S(=O)(=O)C(F)(F)F)CCO [AZD4320] (first compound max 1 µM, 7x7, partner max 1 µM): the Bliss excess is -0.081 with TC-71 (Ewing's Sarcoma); -0.0243 with CHP-212 (Neuroblastoma); 0.0671 in assay [2]; -0.0065 in [4]; 0.0589 in [6]; 0.0122 in the assay with MEL-JUSO (Melanoma). In addition, the Bliss excess was 0.0551 in [8]; 0.0322 in assay [9]; -0.0251 in the assay on LN-18 (Glioblastoma); 0.0022 in assay [10]; -0.0157 in [13]; 0.0033 in assay [14].
Consider `CC(=O)c1c(C)c2cnc(Nc3ccc(N4CCNCC4)cn3)nc2n(C2CCCC2)c1=O` [Palbociclib] + CN(CC[C@H](CSC1=CC=CC=C1)NC2=C(C=C(C=C2)S(=O)(=O)NC(=O)C3=CC=C(C=C3)N4CCC(CC4)[C@H](C5=CC=CC=C5C6=CC=C(C=C6)Cl)O)S(=O)(=O)C(F)(F)F)CCO [AZD4320] (first compound max 10 µM, 7x7, partner max 1 µM), for which the Bliss excess in the assay with TC-71 (Ewing's Sarcoma) was -0.0326; with CHP-212 (Neuroblastoma), -0.0366; in assay [2] it was -0.0038; in [4] it was -0.0021; in [6] it was -0.0459; with MEL-JUSO (Melanoma), -0.099. Moreover, the Bliss excess in assay [8] was -0.0269; in [9], -0.0747; in the assay on LN-18 (Glioblastoma), -0.0081; in [10], -0.0002; in assay [13], -0.0596; in [14] it was -0.0377.
Regarding `C[C@@H](c1ccc2nccn2c1)n1nnc2ncc(-c3cnn(C)c3)nc21` [Savolitinib] + CN(CC[C@H](CSC1=CC=CC=C1)NC2=C(C=C(C=C2)S(=O)(=O)NC(=O)C3=CC=C(C=C3)N4CCC(CC4)[C@H](C5=CC=CC=C5C6=CC=C(C=C6)Cl)O)S(=O)(=O)C(F)(F)F)CCO [AZD4320] (first compound max 1 µM, 7x7, partner max 1 µM), the Bliss excess with TC-71 (Ewing's Sarcoma) was -0.0266; in the assay with CHP-212 (Neuroblastoma) it was -0.0613; in assay [2], -0.0713; in assay [4], -0.0726; in assay [6], -0.0588; with MEL-JUSO (Melanoma), -0.0487. Moreover, the Bliss excess was -0.0161 in assay [8]; -0.0766 in [9]; -0.0406 in the assay with LN-18 (Glioblastoma); -0.0414 in [10]; -0.0312 in [13]; -0.0156 in [14].
